Data as given in US6251882A, “Alkyl ketones as potent anti-cancer agents” (Parker Hughes Institute, priority 1999, dated 2001).

What was measured:
[1] = system: Nalm-6 (B-lineage ALL); assay: MTT cytotoxicity assay, Nalm-6; assay type: cell-based; settings: Homo sapiens, 24-36 hours at 37° C., 0.1 to 250 μM
Method: (§1) Cytotoxicity of various compounds against tumor cells was performed using the MTT (3-[4,5-[…]]-2,5-diphenyl tetrazolium bromide) assay (Boehringer Mannheim Corp., Indianapolis, Ind.). Unless otherwise specified, all cell lines were obtained from the American Type Culture Collection (ATCC). Briefly, exponentially growing cells were seeded into a 96-well plate at a density of 2.5×10^4 cells/well and incubated for 36 hours at 37° C. prior to drug exposure. On the day of treatment, culture medium was carefully aspirated from the wells and replaced with fresh medium containing the indicated compound at concentrations ranging from 0.1 to 250 μM. Triplicate wells were used for each treatment.
(§2) Human leukemic cell lines (NALM-6, MOLT-3) glioblastoma cells (U373) and human breast tumor cell lines (BT20 and MDA-MB-231) were obtained from the American Type Culture Collection and maintained as a continuous cell line in Dulbecco's modified Eagles's medium supplemented with 10% fetal bovine serum and antibiotics.
(§3) The cells were incubated with the various compounds for 24-36 hours at 37° C. in a humidified 5% CO2 atmosphere. To each well, 10 μl of MTT (0.5 mg/ml final concentration) was added and the plates were incubated at 37° C. for 4 hours to allow MTT to form formazan crystals by reacting with metabolically active cells. The formazan crystals were solubilized overnight at 37° C. in a solution containing 10% SDS in 0.01 M HCl. The absorbence of each well was measured in a microplate reader (Labsystems) at 540 nm and a reference wavelength of […]. To translate the OD540 values into the number of live cells in each well, the OD540 values were compared to those on standard OD540 --versus--cell number curves generated for each cell line. The percent survival was calculated using the formula: [formula]
(§4) The IC50 values were calculated by non-linear regression analysis and are shown below in Tables 1-6.

[2] = system: Molt-3 (T-lineage ALL); assay: MTT cytotoxicity assay, Molt-3; assay type: cell-based, human; settings: Homo sapiens, MOLT-3, MTT, 24-36 hours at 37° C., 0.1 to 250 μM
Method: as §1, §2, §3, §4

[3] = system: BT-20 (breast cancer); assay: MTT cytotoxicity assay, BT-20; assay type: cell-based; settings: Homo sapiens, 24-36 hours at 37° C., 0.1 to 250 μM
Method: as §1, §2, §3, §4

[4] = system: PC-3 (prostate cancer); assay: MTT cytotoxicity assay, PC-3; assay type: cell-based; settings: 24-36 hours at 37° C., 0.1 to 250 μM
Method: as §1, §3, §4

[5] = system: U-373 (glioblastoma); assay: MTT cytotoxicity assay, U-373; assay type: cell-based; settings: Homo sapiens, U373 MG, 24-36 hours at 37° C., 0.1 to 250 μM
Method: as §1, §2, §3, §4

| SMILES | IC50 [1] [µM] | IC50 [2] [µM] | IC50 [3] [µM] | IC50 [4] [µM] | IC50 [5] [µM] |
| --- | --- | --- | --- | --- | --- |
| CC(=O)N[C@@H](CSC/C=C(\C)CCC=C(C)C)C(=O)C=[N+]=[N-] [HI-122, N-Ac-S-trans-geranyl-Cys diazomethyl ketone] | > 100 | > 100 | > 100 | > 100 | > 100 |
| COc1ccc(CSC[C@H](NC(C)=O)C(=O)CCl)cc1 [HI-351, N-Ac-S-4-methoxybenzyl-cysteine chloromethyl ketone] | 60.2 | 4.75 | 73.1 | 43.8 | 45.6 |
| CCCCCCCCCCCCSC[C@H](NC(C)=O)C(=O)CSc1ccccc1 [HI-269, N-Ac-S-dodecyl-Cys-CH2 -SPh] | > 100 | > 100 | > 100 | > 100 | > 100 |
| CC(=O)N[C@@H](CSCC=C(C)C)C(=O)CCl [HI-128, N-Ac-S-(3-methyl-2-butenyl)-Cys chloromethyl ketone] | 12.6 | 7.9 | 25.7 | 47.8 | > 100 |
| CC(=O)N[C@@H](CSC/C=C(\C)CC/C=C(\C)CCC=C(C)C)C(=O)CCl [HI-368, N-Ac-S-trans-trans-farnesyl-Cys chloromethyl ketone] | 3 | 1.4 | 55.8 | 26.8 | 61.3 |
| CC(=O)N[C@@H](CSC(C)(C)C)C(=O)CCl [HI-349, N-Ac-S-t-butyl-cysteine chloromethyl ketone] | 71 | 71.9 | > 100 | > 100 | > 100 |
| CCCCCCCCCCCCSC[C@H](NC(=O)OCC1c2ccccc2-c2ccccc21)C(=O)CCl [HI-398, N-9-Fluorenylmethyloxycarbonyl-S-dodecyl-cysteine chloromethyl ketone] | 25.7 | 32.3 | > 100 | > 100 | > 100 |
| CCCCCCCCCCCCSC[C@H](NC(C)=O)C(=O)CSc1ccc2ccccc2c1 [HI-302, N-Ac-S-dodecyl-Cys-CH2 -S-2-naphthyl] | > 100 | > 100 | > 100 | > 100 | > 100 |
